The subject of series [1] is osteoclast (TRAP-positive multinuclear cell) formation. Put plainly: Inhibitory effect on osteoclast formation (TRAP staining). The format is cell-based, mice. As to conditions: 8 days culture with M-CSF and RANKL, compared to control. The gist of the method: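 Non-adherent bone marrow cells from 7–9-week-old female mice, 2×10^5 per well, cultured 8 days with M-CSF (20 ng/ml), RANKL (30 ng/ml) and compound at 0.3, 1.0 or 3 μM. Formation scored by TRAP staining after fixation, 1 h at 37 °C, pH 5.0.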

The subject of another series is osteoclasts. In words: Inhibitory effect on resorption activity of osteoclast (resorption pit area on calcium phosphate-coated plate). The format is cell-based, mice. The settings on record: compared to control. As for the experimental part:
After finishing culture, the plate was washed with distilled water, and 50 μl/well of 5% sodium hypochlorite was added to the plate. The plate was let alone for 5 min, washed again with distilled water to remove the adherent cells, and dried at room temperature. Then, the area of formed resorption pits was calculated by means of Image Pro Plus software (Media Cybernetics Ver. 3.0).

Series [2] concerns osteoclast pregenitor cells. In words: Cytotoxicity against osteoclast pregenitor (MTT). As to conditions: 48 hrs, absorbance at 550 nm. Type of series: cell-based, mice. As for the experimental part:
In order examine the toxicities of the compounds of the Examples against osteoclast pregenitors, pregenitor cells were aliquotted onto a 96-well microplate at a density of 2×10^5 cells per well, treated with 2, 4 and 8 μM of the test compounds, respectively, and cultured for 48 hrs in α-MEM supplemented with 20 ng/ml of M-CSF (Peprotech, USA) using 37° C. incubator (5% CO2). At 3 hrs before the culture was finished, 50 μl of MTT (3-(4,5-dimethylthiazol-2-yl)-2,5-diphenyltetrazolium bromide) solution (50 μg/ml) was added to each well. Upon completion of the cell culture, the supernatant was removed, and the precipitated dye was reacted with 100 μl of isopropanol/0.04 N HCl at room temperature for 30 min to dissolve it. The absorbances of the wells were measured at 550 nm, and the relative absorbance of each well relative to that of the control (set as 100) is shown in Table 6.

The test system of another series is MG-63 cells. In words: Cytotoxicity test against osteoblast (MTT). The format is cell-based, human. A digest of the protocol:
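MG-63 human osteosarcoma cells exposed to 0.1, 0.3, 1.0 and 3.0 μM compound in DMEM with 10% FBS. Osteoclast progenitors in the same text were run at 2, 4 and 8 μM, 48 h, α-MEM + 20 ng/ml M-CSF, 37 °C; MTT added 3 h before end, A550 as % of control.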

A short description of series [3]: In vitro pharmacokinetics: metabolic stability in liver microsome. Type of series: in vitro ADME. The settings on record: human liver microsome 1 mg/ml, 20 μM compound. As for the experimental part:
Metabolic stabilities of the compounds of the Examples were examined by employing microsome samples prepared from the human liver.
Each 20 μM of the compounds were reacted with 1 mg/ml of liver microsome and the half-lives and one-hour stabilities of the compounds were determined.

A further series deals with rats. Put plainly: In vivo acute toxicity test (LD50). As to conditions: single dose, 2 weeks observation. How it is done:
In order to determine the acute toxicities of the compounds prepared in Examples, 6-week old specific pathogen-free (SPF) rats each weighing […] were divided into groups of 10 rat each.
In case of subcutaneous administration, each of the compounds was dissolved in 5% PEG400 solution to a concentration of 20 mg/ml, the resulting solution was serially diluted with 5% PEG400 solution to concentrations of 5, 2.5, 1.25 and 0.625 mg/ml, and the dilutions were subcutaneously injected once to the rats at a dose of 10 ml/kg body weight.
In case of oral administration, each of the compounds was dissolved in soybean oil to a concentration of 180 mg/ml, the resulting solution was serially diluted with soybean oil to concentrations of 80, 20 and 5 mg/ml, and the dilutions were orally administered once to the rats at a dose of 20 ml/kg body weight. […]
During 2 weeks after the administration of the compounds, the death rate, clinical symptoms and weight changes of the rats were observed, and hematological and biochemical tests on blood samples were performed. Then, the rats were sacrificed and the internal organs were visually examined to check any abnormal signs in the organs of chest and abdomen.

The nature of series [4]: In vivo pharmacokinetics using female mice (serum concentration, HPLC). How it is done: Female mice each weighing […] were divided into groups of 5 mice each. The mice were anesthetized with ether, catheterized in their femoral artery and vein, respectively, and administered with 0.5 mg/kg body weight of compounds 234 and 274, and 5 mg/kg body weight of compounds 388, 404 and 415, respectively, via intravenous injection. Alternatively, 15 mg/kg body weight of compound 274 and 10 mg/kg body weight of compound 234 were orally administered to the mice.
At 0, 5, 10, 15 and 30 minutes and 1, 2, 4, 6, 9 and 12 hours after the intravenous injection, or at 0, 10, 20 and 40 minutes and 1, 2, 4, 6, 9 and 12 hours after the oral administration, 0.3 ml blood samples were taken from the mice through femoral artery. The blood samples were kept on an ice bath for 30 minutes and centrifuged at 3,000 rpm for 10 minutes to obtain a supernatant (serum). The supernatant samples were stored at −20° C.
Standard solution: Compounds 234, 274, 388, 404 and 415 were respectively dissolved in methanol to a concentration of 1 mg/ml to obtain stock solutions. The stock solutions were diluted with methanol to obtain standard solutions having concentrations of 40, 20, 10, 2, 1, 0.5, 0.2, 0.05 and 0.02 μg/ml, respectively.
Standard calibration curve: A stand calibration curve was prepared by employing calibration concentrations of 0.002, 0.005, 0.02, 0.05, 0.1, 0.2, 1, 2 and 4 μg/ml.
10 μl each of the standard solutions prepared above was added to 100 μl of normal serum sample and diluted 10 times. 250 μl of acetonitrile was added to the resulting dilution and the mixture was centrifuged for 10 minutes to obtain a supernatant. 300 μl of the supernatant was dried by evaporation under a nitrogen atmosphere and reconstituted by adding 50 μl of methanol. 20 μl of the resulting solution was analyzed by HPLC to prepare a standard calibration curve. HPLC was performed with Shimadzu ODS2 column (4.6×250 mm, 5 μm by employing a mixture of methanol/water (90/10 (v/v)) as the mobile phase at a flow rate of 1.2 ml/min, and measuring the absorbance at 240 nm.
Extraction: 100 μl of the serum sample obtained in (4-2-1) was put into a 1 ml microtube and 10 μl of methanol was added thereto. 250 μl of acetonitrile was added to the microtube and the mixture was centrifuged for 10 minutes to obtain a supernatant. 300 μl of the supernatant was dried by evaporation under a nitrogen atmosphere and reconstituted by adding 50 μl of methanol. 20 μl of the resulting solution was analyzed by the HPLC method as above.
Average concentrations of the compounds in the serum samples were plotted in a semi-log scale against the time lapsed after the administration, and the pharmacokinetic parameters were determined as a non-compartment open model by employing WinNonlin® program (Pharsight Corporation).

A value given as a limit tells only on which side of the number the result lay.

In the case of `C=CCOc1cccc(OCc2ccccc2/C(=C\OC)C(=O)OC)c1` [compound 211], the “Osteoclast formation inhibitory effects (%)” value in series [1] (0.3 μM) amounted to 23%; in series [1] (1.0 μM) it was 96%; in series [1] (3.0 μM), 100%. Besides, the “Reduction (%) of the resorption pit area of osteoclasts” value (“Reduction (%)” below) is reported as 96% with osteoclasts (0.3 uM), 100% with osteoclasts (1 uM) and 100% in the series on osteoclasts (3 uM). Also, the “relative absorbance relative to that of the control (set as 100), MTT” value (from here on “relative absorbance relative to that”) in series [2] (2 uM) is on record as 88; in series [2] (4 uM), 103; in series [2] (8 uM), 103; in the series on MG-63 cells (0.11 uM), 103; in the series on MG-63 cells (0.33 uM), 101; in the series with MG-63 cells (1 uM) it was 105. Moreover, in the series with MG-63 cells (3 uM), the “relative absorbance relative to that” value stood at 106. Also, the Half-life in series [3] was found to be 106 min. The compound also yielded an One-hour stability in series [3] of 60%. The results for the LD50 in the series on rats (PO) and in the series on rats (SC) were 500 mg/kg body weight and 51 mg/kg body weight, respectively.
Take `C=CCOc1ccc(OCc2cc(Cl)ccc2/C(=C\OC)C(=O)OC)cc1` [compound 264]: the “Osteoclast formation inhibitory effects (%)” value in series [1] (0.3 μM) is 98%; in series [1] (1.0 μM), 100%; in series [1] (3.0 μM), 100%. The “Reduction (%)” value with osteoclasts (0.3 uM), in the series with osteoclasts (1 uM) and with osteoclasts (3 uM) was 100% in each case. The “relative absorbance relative to that” value in the series on MG-63 cells (0.11 uM) is reported as 103; in the series with MG-63 cells (0.33 uM) it was 107; in the series with MG-63 cells (1 uM) it was 104; in the series with MG-63 cells (3 uM) it was 92. The same compound returned a Half-life in series [3] of over 180 min. In series [3], this compound gave an One-hour stability of 80%. Also, the LD50 was 269 mg/kg body weight in the series with rats (PO) and 25 mg/kg body weight in the series on rats (SC).
Broadly, the bioavailability is the share of a dose that reaches the circulation, judged against a reference dose that is usually intravenous. The low end stands for little systemic uptake, the high end for much systemic uptake. As to `CO/C=C(/C(=O)OC)c1ccccc1COc1cccc(OCCN2CCOCC2)c1` [compound 234], the results for the “Osteoclast formation inhibitory effects (%)” value in series [1] (0.3 μM), in series [1] (1.0 μM) and in series [1] (3.0 μM) were 25%, 100% and 100%, respectively. Moreover, the “Reduction (%)” value was 95% in the series on osteoclasts (0.3 uM), 100% in the series on osteoclasts (1 uM) and 100% in the series with osteoclasts (3 uM). For the same compound, the results for the “relative absorbance relative to that” value in the series on MG-63 cells (0.33 uM), with MG-63 cells (1 uM) and in the series on MG-63 cells (3 uM) were 98, 115 and 97, respectively. Also, the Half-life in series [3] is over 180 min; in series [4] (I.V.), 10.6 ± 4.8 h; in series [4] (Oral) it was 12.8 ± 7.7 h. In series [3], this compound had an One-hour stability of 83%. For the same compound, the “AUC (area under the curve of blood concentration versus time)” value in series [4] (I.V.) is 477.6 ± 96.4 µg·h/mL; in series [4] (Oral) it was 680.4 ± 426.2 µg·h/mL. The “CL (clearance)” value in series [4] (I.V.) was determined as 1.1 ± 0.2 mL/h; in series [4] (Oral), 19.5 ± 10.6 mL/h. Besides, the “Vd (volume of distribution)” value in series [4] (I.V.) was found to be 15.2 ± 5.2 mL/kg; in series [4] (Oral), 354.4 ± 245.6 mL/kg. In series [4] (oral versus I.V.), this compound came in with a bioavailability of 35.4%. Besides, the values for the LD50 with rats (PO) and in the series with rats (SC) were 100-300 mg/kg body weight and 7 mg/kg body weight, respectively.
On to `C=CCOc1ccc(OCc2ccccc2/C(=C\OC)C(=O)OC)cc1` [compound 179], for which the figures for the “Osteoclast formation inhibitory effects (%)” value in series [1] (0.3 μM), in series [1] (1.0 μM) and in series [1] (3.0 μM) were 84%, 100% and 100%, respectively. In addition, the results for the “Reduction (%)” value with osteoclasts (0.3 uM), with osteoclasts (1 uM) and with osteoclasts (3 uM) were 86%, 100% and 100%, respectively. In addition, the “relative absorbance relative to that” value in the series with MG-63 cells (0.11 uM) was 117; with MG-63 cells (0.33 uM), 111; in the series on MG-63 cells (1 uM) it was 108; in the series with MG-63 cells (3 uM), 106. For the same compound, in series [3], the Half-life is given as over 180 min. For the same compound, the One-hour stability in series [3] is listed as 70%. Besides, the values for the LD50 with rats (PO) and in the series on rats (SC) were 500 mg/kg body weight and 42 mg/kg body weight, respectively.

Source of the values: patent US7879835B2 (Korea Research Institute of Chemical Technology, priority 2004, dated 2011).
